Experimental data as given in the SangsterLogP compilation.

Row | SMILES | logP
1 | C/C=C/C#CC#CC#C/C=C/C(Cl)CO (stereo unspecified) | 3.91
2 | C=CC#Cc1ccc(-c2cccs2)s1 | 5.15
3 | C/C=C/C#CC#C/C=C/C(=O)OC | 2.45
4 | CC=CC#CC=C1C=CC(=O)O1 | 2.09
5 | CC#CC#Cc1ccc(C#CC(Cl)COC(C)=O)s1 (stereo unspecified) | 4.6
6 | c1csc(-c2ccc(-c3cccs3)s2)c1 | 5.57
7 | CC#CC#CC#C/C=C\C(=O)OC | 2.42

More lines, now with the values ahead:

Row | logP | SMILES
8 | 4.76 | C/C=C/C#CC#Cc1ccccc1
9 | 4.91 | CC#CC#CC#Cc1ccccc1
10 | 3.09 | O=C/C=C/C#CC#Cc1ccccc1
11 | 2.48 | OC/C=C/C#CC#Cc1ccccc1
